Results on 12 compounds are retold here after US5576436A, “Fluorescent ligands” (Pharmaceutical Discovery Corporation, priority 1994, dated 1996).

Like-named read-outs stand apart in the source and are kept apart here. Some results are limits rather than exact numbers.

In one assay the test system is Kappa 1. In words: Fluorescent ligand binding, kappa1 opioid receptor. Conditions: result in words.
For another assay, the target named is kappa1 opioid receptor. Briefly: Radioligand ([^3 H]U69,593) binding, kappa1 opioid receptor. Conditions: read-out: IC50 value versus radioligand binding.
The subject of a further assay is benzodiazepine receptors. Conditions: cited from earlier work.
In another assay the test system is Glycine. In words: Fluorescent ligand binding, glycine receptor (strychnine-insensitive). Conditions: Table I.
The target of assay [1] is Dopamine 2. Briefly: Radioligand binding, dopamine 2. Conditions: Table I; read-out: Radiolig. Kd:Ki.
The target in assay [2] is Dopamine 2. Briefly: Fluorescent ligand binding, dopamine 2 (direct fluorescence measurement). The following applies: Table I.
In assay [3] the target is NMDA. In words: Radioligand binding, NMDA. The following applies: Table I; read-out: Radiolig. Kd:Ki.
Assay [4] has as its target NMDA. Briefly: Fluorescent ligand binding, NMDA receptor complex. Conditions: Table I. Here is the method: NMDA RECEPTOR COMPLEX LIGAND (spectral shift compound) (PDC 014.041)
(§1) Recommended Assay Conditions:
Incubation buffer: 5 mM Hepes/Tris (pH 7.8 at 25° C.)
Spectra: 335 nm (ex) and 515 nm (em)
(§2) 1. Reconstitution: 10.0 ml of incubation buffer
3. Incubation Time: 2 hours at 25° C.
4. Measure fluorescence intensity: 335 nm (ex) and […]

Assay [5] has as its target Dopamine 1. In words: Fluorescent ligand binding, dopamine 1 (direct fluorescence measurement). Conditions: Table I.
The target in assay [6] is Dopamine 1. Briefly: Radioligand binding, dopamine 1. Conditions: Table I; read-out: Radiolig. Kd:Ki.
The target of another assay is Cannabinoid. Briefly: Radioligand binding, cannabinoid receptor. The following applies: Table I; read-out: Radiolig. Kd:Ki.
Assay [7] has as its target Muscarinic-M1. Briefly: Radioligand binding, muscarinic-M1. Conditions: Table I; read-out: Radiolig. Kd:Ki.
In assay [8] the target is Muscarinic-M1. Briefly: Fluorescent ligand binding, muscarinic-M1 receptor. Conditions: Table I.
Assay [9] deals with Adenosine-A2a. In words: Fluorescent ligand binding, adenosine-A2a receptor. The following applies: Table I. As for the experimental part: Recommended Assay Conditions for ADENOSINE-A2A RECEPTOR LIGAND (PDC 018.075)
Incubation buffer: 50 mM Tris-HCL containing 10mM MgCl2, (pH 7.4 at 25° C.)
(§3) Spectra: 492 nm (ex) and 516 nm (em)
as §2
3. Incubation Time: 90 minutes at 25° C.

In assay [10] the target is Adenosine-A2a. Briefly: Radioligand binding, adenosine-A2a. Conditions: Table I; read-out: Radiolig. Kd:Ki.
For assay [11], the target named is Peripheral Bzd. Briefly: Radioligand binding, peripheral benzodiazepine receptor. Conditions: Table I; read-out: Radiolig. Kd:Ki.
In assay [12] the target is Peripheral Bzd. Briefly: Fluorescent ligand binding, peripheral benzodiazepine receptor. The following applies: Table I. As for the experimental part: PERIPHERAL BENZODIAZEPINE RECEPTOR LIGAND (PDC 018.091)
as §1
Incubation buffer: 50 Nm Tris-Citrate containing […] MgCL2 (pH 7.0 at 4° C.)
as §3, §2

[13] abbreviates: density of binding of the ligand.
Where [14] appears, read: centri., quench, read-out: Fluores. Kd.
Where [15] appears, read: centrifugation, read-out: Fluores. Kd.

As for `CN(C(=O)Cc1cc(Cl)c(Cl)cc1NC(=O)CCCNC(=O)c1ccc2c(c1)C(=O)OC21c2ccc(O)cc2Oc2cc(O)ccc21)[C@@H]1CCCC[C@H]1N1CCCC1` [1R,2R-trans-4,5-dichloro-2-(4-fluorescein-5-carboxamido)-n-butaniado)-(N-methyl)-2-(1-pyrrolidnyl)-cyclohexyl)benzeneacetamide], the “Measurement using the fluorescence assay” value with Kappa 1 is on record as “confirmed the radioligand results”. Also, the figures for the IC50 at kappa1 opioid receptor (1R,2R enantiomer) and on kappa1 opioid receptor (bound in parentheses) were 3.23 µM and over 1 µM, respectively.
`Cc1nnc2n1-c1ccc(Cl)cc1C(c1ccccc1)=NC2` [Alprazolam, alprazolam]: the “specific to nonspecific (signal to noise) binding ratios” value in the assay with benzodiazepine receptors (nonequilibrium and equilibrium binding conditions) is “high”. Further, in the assay with benzodiazepine receptors (rat brain membranes, saturable and specific), the “affinity for benzodiazepine receptors” value was “low nanomolar affinity”. In the assay with benzodiazepine receptors (rat brain), the “selectivity in vitro for benzodiazepine receptors” value was “selective and specific ligand”.
For `NCCCC(=O)O` [GABA], the “effect on [^3 H]alprazolam binding” value in the assay with benzodiazepine receptors (rat brain membranes) is on record as “enhanced”.
For `O=C(NCCCCCCNc1ccc([N+](=O)[O-])c2nonc12)c1cc(O)c2c(Cl)cc(Cl)cc2n1` [PDC 002.083], the Bmax with Glycine (setting [13]) was determined as 14.5 pmol/mg prot. Moreover, the Kd at Glycine (read-out: Fluores. Kd, centri., quench) came to 750 nM.
For the compound `CCN(CC)CCNC(=O)c1cc(Cl)c(NC(=O)CCCCCNc2ccc([N+](=O)[O-])c3nonc23)cc1OC` [PDC 014.036], the Ki on Dopamine 2 [1] is 90 nM. On Dopamine 2 [2] (setting [14]), the Kd is 500 nM. The Bmax in the assay with Dopamine 2 [2] (setting [13]) was determined as 0.13 pmol/mg prot.
Regarding `CN(C)c1cccc2c(S(=O)(=O)NCCCNC(Cc3ccccc3)c3ccccc3)cccc12` (centres unmarked) [PDC 014.041], the Ki on NMDA [3] was 45 nM. Besides, on NMDA [4] (centri., spectral shift, read-out: Fluores. Kd), the Kd was determined as 1000 nM. Also, the Bmax in the assay with NMDA [4] (setting [13]) is 1.9 pmol/mg prot.
Regarding `O=[N+]([O-])c1ccc(NCCN2CCN(CCCN3c4ccccc4Sc4ccc(C(F)(F)F)cc43)CC2)c2nonc12` [PDC 014.043], the Kd on Dopamine 1 [5] (setting [14]) was determined as 190 nM. This compound came in with a Bmax in the assay with Dopamine 1 [5] (setting [13]) of 69 pmol/mg prot. For the same compound, the Ki at Dopamine 1 [6] is 11 nM.
For `CCCCC/C=C\C/C=C\C/C=C\C/C=C\CCCC(=O)NCCNc1ccc([N+](=O)[O-])c2nonc12` [PDC 014.063], the Ki on Cannabinoid was 52 nM.
For `CCCCC/C=C\C/C=C\C/C=C\C/C=C\CCCC(=O)NCCNS(=O)(=O)c1cccc2c(N(C)C)cccc12` [PDC 014.064], the Ki on Cannabinoid is 52 nM.
For `O=[N+]([O-])c1ccc(NCCN2CCOCC2)c2nonc12` [PDC 018.039], at Muscarinic-M1 [7], the inhibition constant (Ki) was determined as 1700 nM. For the same compound, the Kd on Muscarinic-M1 [8] (setting [14]) came to 985 nM. The compound also registered a Bmax in the assay with Muscarinic-M1 [8] (setting [13]) of 0.20 pmol/mg prot.
Consider `CCNC(=O)[C@H]1O[C@@H](n2cnc3c(N)nc(NCCc4ccc(CCC(=O)NCCNC(=S)Nc5ccc6c(c5)C(=O)OC65c6ccc(O)cc6Oc6cc(O)ccc65)cc4)nc32)[C@H](O)[C@@H]1O` [PDC 018.075], for which the dissociation constant Kd at Adenosine-A2a [9] (setting [15]) amounted to 57 nM. Besides, in the assay on Adenosine-A2a [9] (setting [13]), the Bmax stood at 2.3 pmol/mg prot. Moreover, at Adenosine-A2a [10], the Ki stood at 15 nM.
In the case of `CCC(C)N(C)C(=O)c1cc2ccccc2c(-c2cc(NC(=O)c3ccc4c(c3)C(=O)OC43c4ccc(O)cc4Oc4cc(O)ccc43)ccc2F)n1` (centres unmarked) [PDC 018.091], the Ki at Peripheral Bzd [11] came to 2 nM. On Peripheral Bzd [12] (setting [15]), the equilibrium dissociation constant (Kd) was found to be 40 nM. This compound also registered a Bmax in the assay on Peripheral Bzd [12] (setting [13]) of 2.3 pmol/mg prot.
